Test results: patent US20210128680A1, “METHOD FOR TREATING CARDIOPULMONARY DISORDER” (Chang Gung University, priority 2019, published 2021)
Entries after “also recorded” stand apart in the source; their conditions may differ.

How the values were obtained:
MCT PASMCs [1] = assay: BrdU incorporation cell proliferation assay, MCT PASMCs; format: cell-based, rat; details: FIG. 5 panel B
Description: (§1) PASMCs were isolated from lungs of MCT-treated or control rats using the explant method, as described previously (Lai Y J et al. Am J Respir Crit Care Med. 2008, 178(2):188-96). To culture PASMCs, the PA was dissected from lung and cardiac tissues. The pulmonary arterial tissue was cut into small pieces and suspended in Dulbecco's modified Eagle's medium (DMEM) (Gibco) containing 100 U/mL penicillin, 100 µg/mL streptomycin (Gibco), and 20% fetal bovine serum (FBS) (Gibco). We observed a decrease in desmin, a smooth muscle cell gene marker, at passage 3. Therefore, rat PASMCs were used before passage 3 for all of the in vitro experiments. Characterization of PASMCs was performed by immunocytochemical staining with anti-α-SM-actin (Sigma-Aldrich) and anti-desmin (NeoMakers) antibodies.
(§2) The proliferative activity of PASMCs and the effects of the lumikine were determined by an ELISA-based 5-bromo-2-deoxyuridine (BrdU) incorporation assay kit (Roche Diagnostics Co.) according to the manufacturer's instructions.
(§3) Proliferation of PASMC is critical to the development of PAH. To characterize whether lumikine affected the proliferation of PASMCs in PAH and non-PAH subjects, the PASMCs were isolated from rats with or without MCT induced PAH.

control (CON) PASMCs = assay: BrdU incorporation cell proliferation assay, control PASMCs; format: cell-based, rat; details: compared with vehicle treatment, FIG. 5
Description: as §1, §2, §3

hypoxia-induced PAH mice = assay: Hypoxia-induced PAH mice: RV hypertrophy and pulmonary artery medial wall thickness; format: in vivo; details: for right ventricular (RV) weight (RV/LV+S ratio): hypoxia (10% O2) mice, 3 ng/kg/day, 28 days, FIG. 6 panel A
Description: Adult male Sprague-Dawley rats (200-250 g in body weight) were randomized assigned into two groups for treatment of 28 days after s.c. injection of saline or 60 mg/kg monocrotaline (MCT) (Sigma-Aldrich) to induce pulmonary hypertension (PH). Rats were examined after 3 weeks of treatment (on day 28). Hypoxic pulmonary vascular remodeling was induced by exposure of mice (8-week-old C57BL/6) to chronic hypoxia (10% 02) in a ventilated chamber, as described previously (Li H H et al. Am J Physiol Lung Cell Mol Physiol. 2017: ajplung 00245 2017). The chronic effects of lumikne were assessed in mice exposed to hypoxia for 28 days. Briefly, animals were kept in hypoxic conditions to develop pulmonary hypertension. […] All animal experimental protocols were reviewed and approved by the Chang Gung University IACUC. This study was carried out in strict accordance with the recommendations in the Guide for the Care and Use of Laboratory Animals of the National Institutes of Health. Housing and maintenance was provided by Chang Gung University, and all animals were fed a standard chow diet with free access to water. After sacrifice, the RV wall was separated from the LV wall and ventricular septum. Wet weight of the RV, free LV wall, and ventricular septum was determined and weighted. RV hypertrophy was expressed as the ratio of weight of the RV wall and that of the free LV wall and ventricular septum (LV+S). Fixation was performed by immersion of the lungs in a 10% paraformaldehyde solution. For paraffin embedding, the entire lungs were dissected in tissue blocks from all lobes. Sectioning at 5 μm was performed from all paraffin-embedded blocks. To assess the type of remodeling of muscular pulmonary arteries, the percentage of MWT was utilized to characterize vascular medial hypertrophy by α-SM-actin staining. Under 400× microscopic examination, MWT was defined as the distance between the internal and external elastic laminae using “ImageJ” software downloaded from the open source available from the internet. […]

MCT PASMCs [2] = assay: pAKT expression in MCT PASMCs; format: cell-based, rat
Description: as §1
Tissue samples or cell samples were homogenized in lysis buffer containing 50 mM Tris-HCl, pH 7.4, 50 mM NaCl, 5 mM EDTA, 1% Triton X-100, 0.05% SDS, 50 mM NaF, 10 mM β-glycerophosphate, sodium pyrophosphate, 100 μM Na3VO4, and protease inhibitor cocktail (Calbiochem, Millipore). […] Blots were visualized using an enhanced chemi-luminescence detection system (Millipore). Samples were normalized to GAPDH (Santa Cruz; 1:10000) and quantified by densitometry.

human PASMCs = assay: Western blot of protein expression in human PASMCs under in vitro hypoxia; format: cell-based
Description: Human PASMCs were obtained from commercial sources (Lonza). Cells were grown in SMC growth medium (5% FBS, 1 μg/ml hydrocortisone, 10 ng/ml human epidermal growth factor, 3 ng/ml basic fibroblast growth factor, 10 μg/ml heparin, 10 μg/ml gentamycin, and 0.25 μg/ml amphotericin) (Lonza) and were used between passages 4 and 7. Cells were starved in SMC medium with 0.1% FBS for 24 h before the experiment. Human PASMCs were cultured in the TGF-β 2.5 ng/ml condition for 6 hours to determine the effect of lumikine on the protein expressions.
Human PASMCs were cultured in the hypoxic condition for 24 hours to determine the effect of lumikine on the protein expressions. Hypoxia was created in an incubator: 5% CO2+94% N2+[…], 37° C. Lumikine were dissolved in culture medium at a final concentration of 100 nM.
Tissue samples or cell samples were homogenized in lysis buffer containing 50 mM Tris-HCl, pH 7.4, 50 mM NaCl, 5 mM EDTA, 1% Triton X-100, 0.05% SDS, 50 mM NaF, 10 mM β-glycerophosphate, sodium pyrophosphate, 100 μM Na3VO4, and protease inhibitor cocktail (Calbiochem, Millipore). Immunoblotting was performed using anti-lumican (Abcam; 1:2000), ant-HIF-1α(Abeam; 1:1000), anti-p-AKT, or AKT (Cell Signaling; 1:1000), and anti-p-SMAD2 (Cell Signaling; 1:1000), as primary antibodies. Secondary antibodies specific for peroxidase-conjugated anti-mouse IgG (Jackson; 1:10000) or anti-rabbit IgG (Jackson; 1:10000) were used as needed. Blots were visualized using an enhanced chemi-luminescence detection system (Millipore). Samples were normalized to GAPDH (Santa Cruz; 1:10000) and quantified by densitometry.
In this example, in vitro hypoxic (1% oxygen) model was used to evaluate the effect of the present synthetic peptide—lumikine (SEQ ID NO: 2) on pulmonary arterial smooth muscle cell (PASMCs).

Compound	effect on lumikine inhibition of MCT PASMC proliferation (MCT PASMCs [1]; H89 with lumikine (100 nM))	proliferation of control PASMCs (control (CON) PASMCs)	right ventricular (RV) weight (RV/LV+S ratio) (hypoxia-induced PAH mice)	right ventricular (RV) weight (RV/LV+S ratio) (hypoxia-induced PAH mice; listed as Lumikine)	medial wall thickness (MWT) of the pulmonary artery (hypoxia-induced PAH mice; hypoxia mice, 3 ng/kg/day for 21 days (days 8-28), PAs 25-100 μm, FIG. 6 panel B)	pAKT expression (MCT PASMCs [2])	level of lumican (human PASMCs; lumikine 100 nM, hypoxic condition 24 hours, FIG. 4 panel B)	level of HIF-1α (human PASMCs; lumikine 100 nM, hypoxic condition 24 hours, FIG. 4 panel C)	level of pSmad3 (human PASMCs; lumikine 100 nM, hypoxic condition 24 hours, FIG. 4 panel D)	level of pAKT (human PASMCs; lumikine 100 nM, hypoxic condition 24 hours, FIG. 4 panel E)	Smad4 (human PASMCs; lumikine treatment, hypoxic condition, FIG. 4F)	serum-induced PASMC proliferation (MCT PASMCs [1]; 10% FBS)
O=S(=O)(NCCNC/C=C/c1ccc(Br)cc1)c1cccc2cnccc12 [H89, reference compound]	reversed	–	–	–	–	–	–	–	–	–	–	–
lumikine: synthetic peptide X1EX2LRVANEVTLN (SEQ ID NO: 1) in which X1 is tyrosine (Y) and X2 is alanine (A) (YEALRVANEVTLN)	–	no significantly effects; also recorded: did not affect	significantly reduced	reduction	significantly reduction	reduced	increase	reduction	reduction	reduction	remained unaffected	dose-dependently decrease; also recorded: inhibited significantly
